Experiment [1] is filed under the species Homo sapiens. The experiment in a line: Compound was evaluated for inhibition of tumor cell growth using sulforhodamine-B assay in human BSY-1 cell. Format: functional. (The SRB assay estimates cell density from bound dye.)
Experiment [2] can be described thus: Compound was evaluated for vincristine accumulation in ovarian MDR cancer cells (2780AD) at a concentration of 1.0 ug/mL. Format: functional, Homo sapiens.
Experiment [3] can be described thus: Compound was evaluated for vincristine accumulation in ovarian MDR cancer cells (2780AD) at a concentration of 10 ug/mL. The experiment is classed as functional, Homo sapiens.
A short description of experiment [4]: Compound was evaluated for inhibition of tumor cell growth using sulforhodamine-B assay in 38 human cell lines. The experiment is classed as functional.
The test system of experiment [5] is P388. The experiment in a line: Compound was evaluated for inhibition of tumor cell growth using sulforhodamine-B assay in mouse […] p338 cell line. The experiment is classed as functional.

In the case of `CC1=C2[C@@H](Sc3ccccc3)[C@H](OCCO)C3=C([C@H](OCc4ccccc4)[C@](O)(C[C@@H]1OC(=O)[C@H](O)[C@@H](NCc1ccccc1)c1ccccc1)C2(C)C)[C@@](C)(O)CCC3`, in experiment [1], the GI50 was found to be 9.5 µM. The Control in experiment [2] is recorded as 151%; in experiment [3], 217%.
With `CC(=O)O[C@@]1(C)CCCC2=C1[C@H](OCc1ccccc1)[C@]1(O)C[C@H](OC(=O)[C@H](O)[C@@H](NCc3ccccc3)c3ccccc3)C(C)=C([C@@H](Sc3ccccc3)[C@@H]2OCCO)C1(C)C`, the GI50 in experiment [4] and in experiment [5] was 10 µM in each case. Also, the Control came to 80% in experiment [2] and 102% in experiment [3].

For orientation: GI50 means the concentration giving 50% growth inhibition.

These data come from ChEMBL document CHEMBL1130645, “Synthesis and evaluation of artificial taxoids with antitumor and multi-drug resistance reversing activities” (1998).
